In patent US4048430A, “Mercaptopseudotrisaccharides” (SmithKline Corporation, priority 1975, dated 1977):
In brackets after ≈: the same amount, converted by molar mass. Read-outs that look alike come from different tables or passages of the source.

Tested on: Pseudomonas aeruginosa
Assay: standard agar inclusion test screen, minimum inhibitory concentration against Pseudomonas
Type: cell-based
Settings: read-out: Minimum inhibitory concentrations (MIC)
Method: Compounds of this invention where R, R', R" and Y are hydrogen have antibacterial activity against a variety of bacteria and are especially active against Pseudomonas. Minimum inhibitory concentrations (MIC), as obtained in a standard agar inclusion test screen, range from 25 to 200 μg/ml against Pseudomonas aeruginosa.

[1] = standard agar inclusion test, Pseudomonas (aeruginosa)

MIC [1] [µg/mL]	Structure (SMILES)	MIC (Pseudomonas aeruginosa) [µg/mL]
–	NC[C@H]1O[C@H](O[C@H]2[C@H](O)[C@@H](O)[C@H](N)C[C@@H]2N)[C@H](N)[C@@H](O)[C@@H]1O [neamine, 2-deoxy-4-O-(2,6-diamino-2,6-dideoxy-α-D-glucopyranosyl)-D-streptamine, reference compound]	> 200
63 (≈ 186 µM)	NC[C@H]1O[C@H](O[C@H]2[C@H](O)[C@@H](O)[C@H](N)C[C@@H]2N)[C@H](N)[C@@H](S)[C@@H]1O [2-deoxy-4-O-(2,6-diamino-3-mercapto-2,3,6-trideoxy-α-D-glucopyranosyl)-D-streptamine]	–
25 (≈ 73.9 µM)	NC[C@H]1O[C@H](O[C@H]2[C@H](O)[C@@H](O)[C@H](N)C[C@@H]2N)[C@H](N)[C@@H](O)[C@@H]1S [2-deoxy-4-O-(2,6-diamino-4-mercapto-2,4,6-trideoxy-α-D-glucopyranosyl)-D-streptamine]	–
